Experimental findings from ChEMBL document CHEMBL1141367, “Substituted 2-[(4-aminomethyl)phenoxy]-2-methylpropionic acid PPARalpha agonists. 1. Discovery of a novel series of potent HDLc raising agents” (J Med Chem, 2007) are described below.

SMILES strings stand for the structures. pEC50: −log10 of the molar value. Where only a bound is given, the exact number is not on record here.

For assay [1], the system named is Mus musculus. In words: Decrease in VLDL cholesterol in human Apo-A-I transgenic C57BL/6 mouse at 5 mg/kg, po. Type of assay: functional. Details: scale not given: the % may be the effect or the level left.
Assay [2] relates to Mus musculus. The assay can be described thus: Increase in HDL cholesterol level in human Apo-A-I transgenic C57BL/6 mouse at 5 mg/kg, po. The format is functional.
Assay [3] deals with T1, Peroxisome proliferator-activated receptor gamma (Mus musculus, UniProt P37238).
T1 sequence (P37238 whole entry): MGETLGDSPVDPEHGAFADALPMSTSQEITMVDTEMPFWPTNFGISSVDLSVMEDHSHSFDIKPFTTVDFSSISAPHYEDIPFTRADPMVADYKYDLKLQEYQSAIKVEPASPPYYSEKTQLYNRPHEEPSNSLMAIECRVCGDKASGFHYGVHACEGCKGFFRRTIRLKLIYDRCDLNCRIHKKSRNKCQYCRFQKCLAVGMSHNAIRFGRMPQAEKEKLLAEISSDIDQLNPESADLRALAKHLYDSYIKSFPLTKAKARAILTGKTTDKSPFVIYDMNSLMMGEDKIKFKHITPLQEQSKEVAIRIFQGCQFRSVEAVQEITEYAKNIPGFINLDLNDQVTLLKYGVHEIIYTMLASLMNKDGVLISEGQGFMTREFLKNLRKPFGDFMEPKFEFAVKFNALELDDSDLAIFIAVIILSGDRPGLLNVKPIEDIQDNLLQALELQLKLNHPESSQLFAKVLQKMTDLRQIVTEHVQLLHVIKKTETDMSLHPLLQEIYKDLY
Description: Agonist potency at mouse PPARgamma

The target in assay [4] is T2, Peroxisome proliferator-activated receptor alpha (Homo sapiens) (UniProt Q07869).
T2 sequence (whole entry): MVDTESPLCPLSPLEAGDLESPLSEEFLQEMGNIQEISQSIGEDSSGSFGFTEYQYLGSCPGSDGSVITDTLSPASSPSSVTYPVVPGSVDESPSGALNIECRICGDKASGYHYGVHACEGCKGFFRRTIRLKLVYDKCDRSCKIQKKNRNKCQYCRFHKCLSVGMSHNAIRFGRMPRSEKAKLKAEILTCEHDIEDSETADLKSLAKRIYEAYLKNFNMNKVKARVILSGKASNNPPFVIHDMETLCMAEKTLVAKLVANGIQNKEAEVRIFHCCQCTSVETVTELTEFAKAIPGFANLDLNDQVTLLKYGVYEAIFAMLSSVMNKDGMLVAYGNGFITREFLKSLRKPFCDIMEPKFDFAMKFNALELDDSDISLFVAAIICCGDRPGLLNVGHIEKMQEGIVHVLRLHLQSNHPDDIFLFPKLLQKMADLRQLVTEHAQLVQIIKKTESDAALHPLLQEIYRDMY
In words: Agonist potency at PPARalpha expressed in CV1 cells relative to GW-590735. Type of assay: functional, cell-based. The following applies: CV-1.

Assay [5] deals with T3, Peroxisome proliferator-activated receptor delta (Mus musculus, UniProt P35396).
T3 sequence (P35396 whole entry): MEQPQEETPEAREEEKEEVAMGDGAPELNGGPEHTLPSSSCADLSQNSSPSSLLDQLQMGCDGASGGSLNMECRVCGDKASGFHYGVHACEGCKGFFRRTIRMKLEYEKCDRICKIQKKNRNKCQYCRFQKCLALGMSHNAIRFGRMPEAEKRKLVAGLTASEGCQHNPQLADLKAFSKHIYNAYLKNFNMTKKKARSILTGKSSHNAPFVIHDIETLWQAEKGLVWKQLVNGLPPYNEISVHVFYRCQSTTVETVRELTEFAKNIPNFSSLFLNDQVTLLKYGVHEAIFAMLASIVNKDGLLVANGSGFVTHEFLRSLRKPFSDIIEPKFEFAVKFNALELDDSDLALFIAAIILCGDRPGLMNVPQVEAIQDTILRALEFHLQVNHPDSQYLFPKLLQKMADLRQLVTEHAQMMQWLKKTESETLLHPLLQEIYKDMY
Description: Agonist potency at mouse PPARdelta

`Cc1nc(-c2ccc(C(F)(F)F)cc2)sc1C(=O)NCc1ccc(OC(C)(C)C(=O)O)cc1` [GW590735]: the Activity in the assay with Mus musculus [1] was 86%; in the assay on Mus musculus [2], 86%; in assay [4] it was 95%. Also, the values for the pEC50 in assay [3] and in assay [5] were under 5.00 and 6.00, respectively.
